Results: patent US10821152B2, “Methods, agents and compositions for treatment of inflammatory conditions” (Betanien Hospital, priority 2014, dated 2020)
Non-standard residues stand in square brackets, D forms with d. Residues, ends and D or L forms follow the SMILES beside them. d(hArg(Et2)) = CCN=C(NCC)NCCCC[C@@H](N)C(=O)O; hArg(Et2) = CCN=C(NCC)NCCCC[C@H](N)C(=O)O; dPhe(4-Cl) = N[C@H](Cc1ccc(Cl)cc1)C(=O)O; d2Nal = N[C@H](Cc1ccc2ccccc2c1)C(=O)O; d3Pal = N[C@H](Cc1cccnc1)C(=O)O

Tests used:
Type in all cases: in vivo, human
[1] = system: patient with ulcerative colitis; test: GnRH antagonist treatment for colitis (Ganirelix)
Experimental: • person with ulcerative colitis for the past 10 years Experimental Treatment • Is offered Ganirelix 2 mg daily for 6months Assessment of Response • By 6 months they experience clinical remission with a partial Mayo score reduction from 3 to 0.

[2] = system: patient with tendonitis of the elbow; test: GnRH antagonist injection around tendon in tendonitis; settings: 1.5 mg injected around the affected tendon, 2 week post injection
Experimental: • person diagnosed with tendonitis of the elbow with ultrasound confirming tendonitis. Experimental Treatment • Treated with an injection of GnRH antagonist, Ganirelix 1.5 mg, around the affected tendon. Assessment of Response • Before and 2 week post injection ultrasound images are taken to show a decrease in tendonitis of the elbow.

[3] = system: patient with seropositive rheumatoid arthritis; test: Treatment of RA using Ganirelix
Experimental: • person with seropositive rheumatoid arthritis with disease duration of 10 years. • Fulfilled ACR 2010 classification criteria for rheumatoid arthritis. Experimental Treatment • Had tried almost all available rheumatoid arthritis therapies available previously without effect. • Offered experimental GnRH antagonist therapy, Ganirelix 0.75 mg sc daily (0.25 mg sc three times a day) Assessment of Response at 4 Months • Disease activity score (DAS) reduction from 5.5 to 2.2 (remission). • A DAS reduction of 0.6 units is defined as a clinical response to treatment (1). • Their ESR decreased from 28 mm to 19 mm, with a normalization of their CRP from 23 mg/L to 5 mg/L. This is supported by the decrease in their anti-cyclic citrullinated peptide (CCP) antibodies from 27 u/mL. to 14 u/mL.

CCN=C(NCC)NCCCC[C@H](NC(=O)[C@H](CC(C)C)NC(=O)[C@@H](CCCCNC(=NCC)NCC)NC(=O)[C@H](Cc1ccc(O)cc1)NC(=O)[C@H](CO)NC(=O)[C@@H](Cc1cccnc1)NC(=O)[C@@H](Cc1ccc(Cl)cc1)NC(=O)[C@@H](Cc1ccc2ccccc2c1)NC(C)=O)C(=O)N1CCC[C@H]1C(=O)N[C@H](C)C(N)=O [Ganirelix] (Ac-[d2Nal][dPhe(4-Cl)][d3Pal]SY[d(hArg(Et2))]L[hArg(Et2)]P[dA]-NH2)
partial Mayo score ([1]; Ganirelix 2 mg daily, by 6 months (clinical remission)): 0
partial Mayo score ([1]; before Ganirelix): 3
tendonitis of the elbow on ultrasound [2]: decrease
CRP ([3]; at 4 months): 5 mg/L
ESR ([3]; at 4 months): 19 mm
anti-cyclic citrullinated peptide (CCP) antibodies ([3]; at 4 months): 14 u/mL
rheumatoid factor level ([3]; at 4 months): 75 kIU/L
Disease activity score (DAS) ([3]; at 4 months, 0.75 mg sc daily (remission)): 2.2
CRP ([3]; before Ganirelix): 23 mg/L
Disease activity score (DAS) ([3]; before Ganirelix): 5.5
ESR ([3]; before Ganirelix): 28 mm
anti-cyclic citrullinated peptide (CCP) antibodies ([3]; before Ganirelix): 27 u/mL
rheumatoid factor level ([3]; before Ganirelix): 113 kIU/L
